ChEMBL document CHEMBL3612048, “Cytotoxic triterpenoid glycosides (saikosaponins) from the roots of Bupleurum chinense” (Bioorg Med Chem Lett, 2015)

Columns and labels:
Bcap37 = experiment: Cytotoxicity against human Bcap37 cells assessed as induction of cell death incubated for 2 days by MTT assay; format: functional, cell-based; conditions: Bcap37, 48 h
HepG2 = experiment: Cytotoxicity against human HepG2 cells assessed as induction of cell death incubated for 2 days by MTT assay; format: functional, cell-based; conditions: HepG2, 48 h
A549 = experiment: Cytotoxicity against human A549 cells assessed as induction of cell death incubated for 2 days by MTT assay; format: functional, cell-based; conditions: A549, 48 h
MCF7 = experiment: Cytotoxicity against human MCF7 cells assessed as induction of cell death incubated for 2 days by MTT assay; format: functional, cell-based; conditions: MCF7, 48 h
[1] = Cytotoxicity against human Hep3B cells assessed as induction of cell death incubated for 2 days by MTT assay; format: functional, cell-based, Hep 3B2; conditions: 48 h

C[C@H]1O[C@@H](O[C@H]2CC[C@@]3(C)[C@@H](CC[C@]4(C)[C@@H]3C=C[C@]35OC[C@@]6(CCC(C)(C)C[C@H]63)[C@@H](O)C[C@]54C)[C@]2(C)CO)[C@H](O)[C@@H](O)[C@H]1O
IC50 (Bcap37): 17.3 µM | IC50 (HepG2): 13.3 µM | IC50 (A549): > 50 µM | IC50 (MCF7): 43.3 µM | IC50 [1]: 19.8 µM

CO[C@@H]1C=C2[C@@H]3CC(C)(C)CC[C@]3(CO)[C@@H](O)C[C@@]2(C)[C@]2(C)CC[C@H]3[C@](C)(CO)[C@@H](O[C@@H]4O[C@H](C)[C@H](O)[C@H](O)[C@H]4O)CC[C@]3(C)[C@@H]12
IC50 (Bcap37): > 50 µM | IC50 (HepG2): 30.2 µM | IC50 (A549): > 50 µM | IC50 (MCF7): > 50 µM | IC50 [1]: > 50 µM

CO[C@@H]1C=C2[C@@H]3CC(C)(C)CC[C@]3(CO)[C@@H](O)C[C@@]2(C)[C@]2(C)CC[C@H]3C(C)(C)[C@@H](O[C@@H]4O[C@H](C)[C@H](O)[C@H](O)[C@H]4O)CC[C@]3(C)[C@@H]12
IC50 (Bcap37): > 50 µM | IC50 (HepG2): > 50 µM | IC50 (A549): > 50 µM | IC50 (MCF7): > 50 µM | IC50 [1]: > 50 µM

CC(=O)OC[C@@]1(C)[C@@H]2CC[C@]3(C)[C@H](C=C[C@]45OC[C@@]6(CCC(C)(C)C[C@H]64)[C@@H](O)C[C@]53C)[C@@]2(C)CC[C@@H]1O[C@@H]1O[C@H](C)[C@H](O)[C@H](O)[C@H]1O
IC50 (Bcap37): 26 µM | IC50 (HepG2): 9.76 µM | IC50 (A549): 34.1 µM | IC50 (MCF7): 33.5 µM | IC50 [1]: 24.8 µM

C[C@H]1O[C@@H](O[C@H]2CC[C@@]3(C)[C@@H](CC[C@]4(C)[C@@H]3C=CC3=C5CC(C)(C)CC[C@]5(CO)C(=O)C[C@]34C)[C@]2(C)CO)[C@H](O)[C@@H](O[C@@H]2O[C@H](CO)[C@@H](O)[C@H](O)[C@H]2O)[C@H]1O
IC50 (Bcap37): > 50 µM | IC50 (HepG2): 40.2 µM | IC50 (A549): > 50 µM | IC50 (MCF7): > 50 µM | IC50 [1]: > 50 µM

CO[C@@H]1C=C2C3CC(C)(C)CC[C@]3(CO)[C@H](O)C[C@@]2(C)[C@]2(C)CC[C@H]3[C@](C)(CO)[C@@H](O[C@@H]4O[C@H](C)[C@H](O)[C@H](O[C@@H]5O[C@H](CO)[C@@H](O)[C@H](O)[C@H]5O)[C@H]4O)CC[C@]3(C)[C@@H]12 (stereo partly specified)
IC50 (Bcap37): > 50 µM | IC50 (HepG2): > 50 µM | IC50 (A549): > 50 µM | IC50 (MCF7): > 50 µM | IC50 [1]: > 50 µM

C[C@H]1O[C@@H](O[C@H]2CC[C@@]3(C)[C@@H](CC[C@]4(C)[C@@H]3C=C[C@]35OC[C@@]6(CCC(C)(C)C[C@H]63)[C@H](O)C[C@]54C)[C@]2(C)CO)[C@H](O)[C@@H](O)[C@H]1O
IC50 (Bcap37): 32 µM | IC50 (HepG2): 9.34 µM | IC50 (A549): > 50 µM | IC50 (MCF7): 49 µM | IC50 [1]: 20.4 µM

C[C@H]1O[C@@H](O[C@H]2CC[C@@]3(C)[C@@H](CC[C@]4(C)[C@@H]3C=C[C@]35OC[C@@]6(CCC(C)(C)C[C@H]63)[C@H](O)C[C@]54C)[C@]2(C)CO)[C@H](O)[C@@H](O[C@@H]2O[C@H](CO)[C@@H](O)[C@H](O)[C@H]2O)[C@H]1O
IC50 (Bcap37): 10.7 µM | IC50 (HepG2): 4.88 µM | IC50 (A549): 30.8 µM | IC50 (MCF7): 7.68 µM | IC50 [1]: 9.61 µM

C[C@H]1O[C@@H](O[C@H]2CC[C@]3(C)[C@H]4C=C[C@]56OC[C@@]7(CCC(C)(C)C[C@H]75)[C@@H](O)C[C@@]6(C)[C@]4(C)CC[C@H]3C2(C)C)[C@H](O)[C@@H](O[C@@H]2O[C@H](CO)[C@@H](O)[C@H](O)[C@H]2O)[C@H]1O
IC50 (Bcap37): 15.4 µM | IC50 (HepG2): 20.5 µM | IC50 (A549): > 50 µM | IC50 (MCF7): 21.3 µM | IC50 [1]: 16.7 µM

CC(=O)O[C@H]1[C@H](O[C@H]2[C@@H](O)[C@@H](C)O[C@@H](O[C@H]3CC[C@@]4(C)[C@@H](CC[C@]5(C)[C@@H]4C=C[C@]46OC[C@@]7(CCC(C)(C)C[C@H]74)[C@@H](O)C[C@]65C)[C@]3(C)CO)[C@@H]2O)O[C@H](CO)[C@@H](O)[C@@H]1O
IC50 (Bcap37): 17.7 µM | IC50 (HepG2): 20.1 µM | IC50 (A549): 38.9 µM | IC50 (MCF7): 30.1 µM | IC50 [1]: 5.74 µM

CC(=O)O[C@@H]1[C@@H](O)[C@H](O[C@H]2[C@@H](O)[C@@H](C)O[C@@H](O[C@H]3CC[C@@]4(C)[C@@H](CC[C@]5(C)[C@@H]4C=C[C@]46OC[C@@]7(CCC(C)(C)C[C@H]74)[C@@H](O)C[C@]65C)[C@]3(C)CO)[C@@H]2O)O[C@H](CO)[C@H]1O
IC50 (Bcap37): 26.6 µM | IC50 (HepG2): 12.9 µM | IC50 (A549): 38.2 µM | IC50 (MCF7): 22.2 µM | IC50 [1]: 13.7 µM

CC(=O)OC[C@H]1O[C@@H](O[C@H]2[C@@H](O)[C@@H](C)O[C@@H](O[C@H]3CC[C@@]4(C)[C@@H](CC[C@]5(C)[C@@H]4C=C[C@]46OC[C@@]7(CCC(C)(C)C[C@H]74)[C@@H](O)C[C@]65C)[C@]3(C)CO)[C@@H]2O)[C@H](O)[C@@H](O)[C@@H]1O
IC50 (Bcap37): 34.1 µM | IC50 (HepG2): 20.8 µM | IC50 (A549): 35.3 µM | IC50 (MCF7): 36.2 µM | IC50 [1]: 16.9 µM

CC(=O)OC[C@@]1(C)[C@@H]2CC[C@]3(C)[C@H](C=C[C@]45OC[C@@]6(CCC(C)(C)C[C@H]64)[C@@H](O)C[C@]53C)[C@@]2(C)CC[C@@H]1O[C@@H]1O[C@H](C)[C@H](O)[C@H](O[C@@H]2O[C@H](CO)[C@@H](O)[C@H](O)[C@H]2O)[C@H]1O
IC50 (Bcap37): > 50 µM | IC50 (HepG2): > 50 µM | IC50 (A549): > 50 µM | IC50 (MCF7): > 50 µM | IC50 [1]: > 50 µM

C[C@@H]1O[C@@H](O[C@H]2[C@H](O)[C@@H](O)[C@H](O[C@H]3CC[C@]4(C)[C@H]5C=C[C@]67OC[C@@]8(CCC(C)(C)C[C@H]86)[C@@H](O)C[C@@]7(C)[C@]5(C)CC[C@H]4C3(C)C)O[C@@H]2CO[C@@H]2O[C@H](CO)[C@@H](O)[C@H](O)[C@H]2O)[C@H](O)[C@H](O)[C@H]1O
IC50 (Bcap37): > 50 µM | IC50 (HepG2): > 50 µM | IC50 (A549): > 50 µM | IC50 (MCF7): > 50 µM | IC50 [1]: > 50 µM

CC(=O)OC[C@H]1O[C@@H](O[C@H]2[C@@H](O)[C@@H](C)O[C@@H](O[C@H]3CC[C@@]4(C)[C@@H](CC[C@]5(C)[C@@H]4C=C[C@]46OC[C@@]7(CCC(C)(C)C[C@H]74)[C@H](O)C[C@]65C)[C@]3(C)CO)[C@@H]2O)[C@H](O)[C@@H](O)[C@@H]1O
IC50 (Bcap37): 17.7 µM | IC50 (HepG2): 8.29 µM | IC50 (A549): 15.3 µM | IC50 (MCF7): 9.98 µM | IC50 [1]: 7.59 µM

C[C@H]1O[C@@H](O[C@H]2CC[C@@]3(C)[C@@H](CC[C@]4(C)[C@@H]3C=CC3=C5CC(C)(C)CC[C@]5(CO)[C@H](O)C[C@]34C)[C@]2(C)CO)[C@H](O)[C@@H](O)[C@H]1O
IC50 (Bcap37): 38.4 µM | IC50 (HepG2): 18.9 µM | IC50 (A549): > 50 µM | IC50 (MCF7): 29.6 µM | IC50 [1]: 16.5 µM

C[C@H]1O[C@@H](O[C@H]2CC[C@@]3(C)[C@@H](CC[C@]4(C)[C@@H]3C=CC3=C5CC(C)(C)CC[C@]5(CO)[C@@H](O)C[C@]34C)[C@]2(C)CO)[C@H](O)[C@@H](O)[C@H]1O
IC50 (Bcap37): 43.2 µM | IC50 (HepG2): 26.2 µM | IC50 (A549): > 50 µM | IC50 (MCF7): 42.1 µM | IC50 [1]: 19.8 µM

C[C@H]1O[C@@H](O[C@H]2CC[C@@]3(C)[C@@H](CC[C@]4(C)[C@@H]3C=CC3=C5CC(C)(C)CC[C@]5(CO)[C@@H](O)C[C@]34C)[C@]2(C)CO)[C@H](O)[C@@H](O[C@@H]2O[C@H](CO)[C@@H](O)[C@H](O)[C@H]2O)[C@H]1O
IC50 (Bcap37): > 50 µM | IC50 (HepG2): > 50 µM | IC50 (A549): > 50 µM | IC50 (MCF7): > 50 µM | IC50 [1]: > 50 µM

C[C@H]1O[C@@H](O[C@H]2CC[C@@]3(C)[C@@H](CC[C@]4(C)[C@@H]3C=C[C@]35OC[C@@]6(CCC(C)(C)C[C@H]63)C(=O)C[C@]54C)[C@]2(C)CO)[C@H](O)[C@@H](O[C@@H]2O[C@H](CO)[C@@H](O)[C@H](O)[C@H]2O)[C@H]1O
IC50 (Bcap37): 20.2 µM | IC50 (HepG2): 20.6 µM | IC50 (A549): 34.1 µM | IC50 (MCF7): 24 µM | IC50 [1]: 7.75 µM

O=c1[nH]cc(F)c(=O)[nH]1 [FLUOROURACIL]
IC50 [1]: 1.5 µM

C[C@H]1O[C@@H](O[C@H]2CC[C@@]3(C)[C@@H](CC[C@]4(C)[C@@H]3C=C[C@]35OC[C@@]6(CCC(C)(C)C[C@H]63)[C@@H](O)C[C@]54C)[C@]2(C)CO)[C@H](O)[C@@H](O[C@@H]2O[C@H](CO)[C@@H](O)[C@H](O)[C@H]2O)[C@H]1O [SAIKOSAPONIN A]
IC50 (Bcap37): 14 µM | IC50 (HepG2): 8.34 µM | IC50 (A549): 14.5 µM | IC50 (MCF7): 19 µM | IC50 [1]: 13 µM
